In patent publication US9549932B2, “2-(morpholin-4-yl)-1,7-naphthyridines” (BAYER PHARMA AKTIENGESELLSCHAFT, priority 2014, dated 2017):

Target: full-length human ATR protein (Homo sapiens (Human), UniProt Q13535)
Experiment: Binding assay ATR (TR-FRET tracer displacement)
Settings: tracer A, TR-FRET; read-out: ATR binding (tracer A) IC50
In short: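 Full-length human GST-ATR co-purified with ATRIP, pre-complexed 30 min at 22 °C with anti-GST-Tb antibody, then pre-bound with compound 10 min. Tracer A or B added (2 µl of 100 nM solution), 30 min at 22 °C.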

Chain of full-length human ATR protein (Q13535 other isoform, or with tags, fused parts or gaps): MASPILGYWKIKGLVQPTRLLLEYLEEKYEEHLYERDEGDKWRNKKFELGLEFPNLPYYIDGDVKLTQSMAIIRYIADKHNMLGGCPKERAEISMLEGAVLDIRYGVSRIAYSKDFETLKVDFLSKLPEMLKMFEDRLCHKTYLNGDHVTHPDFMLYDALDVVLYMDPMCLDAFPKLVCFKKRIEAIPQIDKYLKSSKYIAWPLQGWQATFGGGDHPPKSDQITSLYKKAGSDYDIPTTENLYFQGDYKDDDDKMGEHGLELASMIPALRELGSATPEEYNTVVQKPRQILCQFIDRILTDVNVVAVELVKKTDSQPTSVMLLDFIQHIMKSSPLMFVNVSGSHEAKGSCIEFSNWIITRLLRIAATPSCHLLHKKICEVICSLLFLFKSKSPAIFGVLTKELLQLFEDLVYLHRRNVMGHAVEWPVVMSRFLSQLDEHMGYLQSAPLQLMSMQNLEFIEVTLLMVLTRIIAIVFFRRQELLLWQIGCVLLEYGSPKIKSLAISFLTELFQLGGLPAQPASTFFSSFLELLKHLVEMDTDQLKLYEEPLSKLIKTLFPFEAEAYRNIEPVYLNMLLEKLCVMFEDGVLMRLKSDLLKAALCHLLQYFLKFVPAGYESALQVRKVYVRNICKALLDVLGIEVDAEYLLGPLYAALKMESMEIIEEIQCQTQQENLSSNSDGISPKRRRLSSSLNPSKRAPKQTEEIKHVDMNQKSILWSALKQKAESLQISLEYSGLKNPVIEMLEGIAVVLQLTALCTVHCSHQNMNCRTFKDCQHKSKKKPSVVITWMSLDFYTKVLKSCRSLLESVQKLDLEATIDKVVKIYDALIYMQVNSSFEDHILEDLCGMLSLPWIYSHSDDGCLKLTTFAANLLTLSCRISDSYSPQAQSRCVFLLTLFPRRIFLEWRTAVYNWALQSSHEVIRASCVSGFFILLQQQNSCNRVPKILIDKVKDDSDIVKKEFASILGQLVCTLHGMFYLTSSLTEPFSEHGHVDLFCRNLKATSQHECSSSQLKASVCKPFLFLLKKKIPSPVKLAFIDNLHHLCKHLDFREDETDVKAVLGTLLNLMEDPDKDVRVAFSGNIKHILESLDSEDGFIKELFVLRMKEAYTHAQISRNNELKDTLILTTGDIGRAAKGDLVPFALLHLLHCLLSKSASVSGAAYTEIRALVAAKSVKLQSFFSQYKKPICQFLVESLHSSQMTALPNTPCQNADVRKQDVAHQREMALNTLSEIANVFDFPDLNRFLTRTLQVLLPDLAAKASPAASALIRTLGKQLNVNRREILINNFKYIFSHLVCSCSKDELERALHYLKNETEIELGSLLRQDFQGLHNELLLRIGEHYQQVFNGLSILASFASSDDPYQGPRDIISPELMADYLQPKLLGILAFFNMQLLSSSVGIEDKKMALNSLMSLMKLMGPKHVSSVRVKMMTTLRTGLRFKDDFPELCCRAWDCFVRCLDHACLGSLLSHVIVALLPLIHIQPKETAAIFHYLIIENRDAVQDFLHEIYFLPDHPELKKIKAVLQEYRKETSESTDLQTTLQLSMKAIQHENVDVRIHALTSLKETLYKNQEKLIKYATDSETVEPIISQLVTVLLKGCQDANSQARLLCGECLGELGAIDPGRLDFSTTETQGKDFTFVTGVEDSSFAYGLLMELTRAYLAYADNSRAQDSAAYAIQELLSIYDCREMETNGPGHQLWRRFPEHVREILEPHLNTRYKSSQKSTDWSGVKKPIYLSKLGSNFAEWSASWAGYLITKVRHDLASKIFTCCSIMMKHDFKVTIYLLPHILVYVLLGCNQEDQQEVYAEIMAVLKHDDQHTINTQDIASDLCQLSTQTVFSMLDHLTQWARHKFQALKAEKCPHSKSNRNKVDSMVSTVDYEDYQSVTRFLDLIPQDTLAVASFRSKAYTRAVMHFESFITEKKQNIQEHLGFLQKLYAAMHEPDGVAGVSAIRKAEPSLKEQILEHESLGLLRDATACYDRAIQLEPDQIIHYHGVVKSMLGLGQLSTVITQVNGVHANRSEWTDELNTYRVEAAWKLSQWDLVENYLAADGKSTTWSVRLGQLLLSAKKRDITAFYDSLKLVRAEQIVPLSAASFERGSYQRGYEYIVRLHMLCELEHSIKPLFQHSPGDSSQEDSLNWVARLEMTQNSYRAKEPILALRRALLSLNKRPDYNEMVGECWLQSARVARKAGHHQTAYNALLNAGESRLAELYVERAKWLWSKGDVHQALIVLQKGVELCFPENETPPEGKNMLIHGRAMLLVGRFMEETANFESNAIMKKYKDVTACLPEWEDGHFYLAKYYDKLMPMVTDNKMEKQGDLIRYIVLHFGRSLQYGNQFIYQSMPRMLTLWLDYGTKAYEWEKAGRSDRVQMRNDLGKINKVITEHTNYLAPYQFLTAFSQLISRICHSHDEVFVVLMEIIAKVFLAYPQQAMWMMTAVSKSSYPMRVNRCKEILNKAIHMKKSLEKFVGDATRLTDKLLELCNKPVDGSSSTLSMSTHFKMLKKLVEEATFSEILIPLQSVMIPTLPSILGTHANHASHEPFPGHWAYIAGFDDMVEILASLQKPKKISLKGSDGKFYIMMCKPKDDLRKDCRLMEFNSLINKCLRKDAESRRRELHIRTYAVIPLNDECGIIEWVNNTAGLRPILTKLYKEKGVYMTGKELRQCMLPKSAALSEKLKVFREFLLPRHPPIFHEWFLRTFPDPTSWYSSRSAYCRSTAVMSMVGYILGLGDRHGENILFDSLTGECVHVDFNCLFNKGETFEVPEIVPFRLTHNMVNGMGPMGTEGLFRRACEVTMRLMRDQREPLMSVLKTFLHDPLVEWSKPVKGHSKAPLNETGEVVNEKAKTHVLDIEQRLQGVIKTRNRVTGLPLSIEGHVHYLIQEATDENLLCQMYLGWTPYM
Chain of full-length human ATR protein (Q8WXE1 other isoform, or with tags, fused parts or gaps partner): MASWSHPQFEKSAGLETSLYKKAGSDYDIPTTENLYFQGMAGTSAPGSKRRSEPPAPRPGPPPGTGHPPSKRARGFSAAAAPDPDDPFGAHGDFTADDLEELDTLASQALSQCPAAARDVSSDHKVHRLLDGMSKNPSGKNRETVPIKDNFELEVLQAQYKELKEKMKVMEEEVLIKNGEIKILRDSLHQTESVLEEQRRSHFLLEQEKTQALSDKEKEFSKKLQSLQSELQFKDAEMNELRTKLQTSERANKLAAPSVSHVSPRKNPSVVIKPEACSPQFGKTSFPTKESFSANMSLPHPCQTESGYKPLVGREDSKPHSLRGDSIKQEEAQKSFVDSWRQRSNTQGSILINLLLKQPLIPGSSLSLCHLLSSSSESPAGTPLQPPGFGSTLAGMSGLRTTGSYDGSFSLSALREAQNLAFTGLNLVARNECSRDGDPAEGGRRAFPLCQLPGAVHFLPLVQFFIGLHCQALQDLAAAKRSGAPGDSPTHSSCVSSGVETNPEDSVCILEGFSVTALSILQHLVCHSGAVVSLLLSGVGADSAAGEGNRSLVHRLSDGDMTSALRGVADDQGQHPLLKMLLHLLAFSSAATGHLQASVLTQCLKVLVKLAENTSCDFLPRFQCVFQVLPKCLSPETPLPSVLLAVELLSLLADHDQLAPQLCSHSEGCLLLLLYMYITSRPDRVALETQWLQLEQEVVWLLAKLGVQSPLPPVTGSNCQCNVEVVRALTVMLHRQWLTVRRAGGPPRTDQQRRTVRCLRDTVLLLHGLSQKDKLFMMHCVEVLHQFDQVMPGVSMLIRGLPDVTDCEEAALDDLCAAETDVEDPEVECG

Row | Compound | IC50
1 | COc1cc(-c2cc(N3CCOCC3)nc3c(-c4ccn[nH]4)nccc23)ccn1 [Example 351, 4-(2-methoxypyridin-4-yl)-2-(morpholin-4-yl)-8-(1H-pyrazol-5-yl)-1,7-naphthyridine] | 154 nM
2 | Cc1cncc(-c2cc(N3CCOCC3)nc3c(-c4ccn[nH]4)nccc23)c1 [Example 352, 4-(5-methylpyridin-3-yl)-2-(morpholin-4-yl)-8-(1H-pyrazol-5-yl)-1,7-naphthyridine] | 175 nM
3 | COc1cncc(-c2cc(N3CCOCC3)nc3c(-c4ccn[nH]4)nccc23)c1 [Example 353, 4-(5-methoxypyridin-3-yl)-2-(morpholin-4-yl)-8-(1H-pyrazol-5-yl)-1,7-naphthyridine] | 242 nM
4 | c1ccc2ncc(-c3cc(N4CCOCC4)nc4c(-c5ccn[nH]5)nccc34)cc2c1 [Example 354, 2-(morpholin-4-yl)-8-(1H-pyrazol-5-yl)-4-(quinolin-3-yl)-1,7-naphthyridine] | 84.7 nM
5 | O=S(=O)(c1ccccc1)n1c(-c2cc(N3CCOCC3)nc3c(-c4ccn[nH]4)nccc23)cc2ccccc21 [Example 355, 2-(morpholin-4-yl)-4-[1-(phenylsulfonyl)-1H-indol-2-yl]-8-(1H-pyrazol-5-yl)-1,7-naphthyridine] | 484 nM
6 | OCc1ccc(-c2cc(N3CCOCC3)nc3c(-c4ccn[nH]4)nccc23)s1 [Example 358, {5-[2-(morpholin-4-yl)-8-(1H-pyrazol-5-yl)-1,7-naphthyridin-4-yl]thiophen-2-yl}methanol] | 46.4 nM
7 | Fc1ncccc1-c1cc(N2CCOCC2)nc2c(-c3ccn[nH]3)nccc12 [Example 359, 4-(2-fluoropyridin-3-yl)-2-(morpholin-4-yl)-8-(1H-pyrazol-5-yl)-1,7-naphthyridine] | 85.5 nM
8 | Fc1ccc(-c2cc(N3CCOCC3)nc3c(-c4ccn[nH]4)nccc23)cn1 [Example 360, 4-(6-fluoropyridin-3-yl)-2-(morpholin-4-yl)-8-(1H-pyrazol-5-yl)-1,7-naphthyridine] | 93.8 nM
9 | COc1ncccc1-c1cc(N2CCOCC2)nc2c(-c3ccn[nH]3)nccc12 [Example 362, 4-(2-methoxypyridin-3-yl)-2-(morpholin-4-yl)-8-(1H-pyrazol-5-yl)-1,7-naphthyridine] | 295 nM
10 | c1ccc2c(-c3cc(N4CCOCC4)nc4c(-c5ccn[nH]5)nccc34)cncc2c1 [Example 363, 4-(isoquinolin-4-yl)-2-(morpholin-4-yl)-8-(1H-pyrazol-5-yl)-1,7-naphthyridine] | 191 nM
11 | Fc1cnccc1-c1cc(N2CCOCC2)nc2c(-c3ccn[nH]3)nccc12 [Example 365, 4-(3-fluoropyridin-4-yl)-2-(morpholin-4-yl)-8-(1H-pyrazol-5-yl)-1,7-naphthyridine] | 103 nM
12 | Fc1ccc(-c2cc(N3CCOCC3)nc3c(-c4ccn[nH]4)nccc23)c(F)n1 [Example 366, 4-(2,6-difluoropyridin-3-yl)-2-(morpholin-4-yl)-8-(1H-pyrazol-5-yl)-1,7-naphthyridine] | 52.1 nM
13 | Cn1cc(-c2cc(N3CCOCC3)nc3c(-c4ccn[nH]4)nccc23)cn1 [Example 367, 4-(1-methyl-1H-pyrazol-4-yl)-2-(morpholin-4-yl)-8-(1H-pyrazol-5-yl)-1,7-naphthyridine] | 215 nM
14 | COc1ccc2c(c1)cc(-c1cc(N3CCOCC3)nc3c(-c4ccn[nH]4)nccc13)n2C(=O)OC(C)(C)C [Example 368, tert-butyl 5-methoxy-2-[2-(morpholin-4-yl)-8-(1H-pyrazol-5-yl)-1,7-naphthyridin-4-yl]-1H-indole-1-carboxylate] | 3950 nM
15 | c1cc(-c2nccc3c(-c4ccc(N5CCOCC5)nc4)cc(N4CCOCC4)nc23)[nH]n1 [Example 369, 2-(morpholin-4-yl)-4-[6-(morpholin-4-yl)pyridin-3-yl]-8-(1H-pyrazol-5-yl)-1,7-naphthyridine] | 115 nM
16 | Cc1cscc1-c1cc(N2CCOCC2)nc2c(-c3ccn[nH]3)nccc12 [Example 370, 4-(4-methylthiophen-3-yl)-2-(morpholin-4-yl)-8-(1H-pyrazol-5-yl)-1,7-naphthyridine] | 35 nM
